molecular target: T1, BRD4(BD1) (Homo sapiens, UniProt O60885); experiment: HTRF assay, disruption of bromodomain/histone peptide interaction; assay type: binding; conditions: HTRF; mean ± SD of three experiments; Table 2; read-out: IC50 μM, effect on BRD4(BD1) activity
T1 construct: a BRD4(BD1) synthetic gene that includes a TEV cleavage site was purchased from LifeTechnology; made in house
Experimental: HTRF assays were performed in white 384 Well Small Volume™ HiBase Polystyrene Microplates (Greiner) with a total working volume of 20 μL. Compounds were dispensed, with 200 nL per well (1% final DMSO), from a concentration stock of 1 mM in 100% DMSO and with serial DMSO dilutions, using a Mosquito Crystal pipetting robot platform (TTP labtech). The IC50 measurements were performed in triplicates (Table 2 and 3). All HTRF reagents were purchased from CisBio Bioassays and reconstituted according to the supplier protocols. For each assay 14.7 μL of mix 1 (protein+peptide) is added in the assay wells, containing previously dispensed inhibitors, according to the final concentration and buffer described in Table 4, using a Biomek NX MC pipetting robot (Beckman). Then, 5.1 μL of mix 2 (donnor+acceptor) is added. HTRF signals were measured, after a final incubation (overnight at room temperature), using a PHERAstar FS (BMG Labtech) with an excitation filter at 337 nm and fluorescence wavelength measurement at 620 and 665 nm, an integration delay of 60 μs and an integration time of 500 μs. Results were analyzed with a two-wavelengths signal ratio: [intensity (665 nm)/intensity (620 nm)]*10^4. Percentage of inhibition was calculated using the following equation: % inhibition=[(compound signal)−(min signal)]/[(max signal)−(min signal)]*100, where ‘max signal’ is the signal ratio with the compound vehicle alone (DMSO) and ‘min signal’ the signal ratio without peptide.
For Isothermal Titration Calorimetry (ITC) and crystallogenesis, BRD4(BD1) was produced and purified using a histidine tag affinity chromatography as described by Filipakopoulos et al.9 For these experiments, a pNIC28-BSA4 expression vector containing BRD4(BD1) and a Tobacco Etch Virus (TEV) protease cleavage site have kindly been provided by Stefan Knapp laboratory from the SGC at the University of Oxford. After size exclusion chromatography, the fractions presenting pure BRD4(BD1) after TEV cleavage of the histidine tag were pooled and concentrated to 25 mg/mL for crystallogenesis. For ITC assays, the protein was concentrated up to at 6 mg/mL and the DTT was removed using a buffer exchange column (PD10 from GE healthcare) equilibrated with 10 mM HEPES pH=7.5, 150 mM NaCl. For Homogeneous Time Resolved Fluorimetry (HTRF) experiments, a BRD4(BD1) synthetic gene that includes a TEV cleavage site was purchased from LifeTechnology in a pDONR transport vector before cloning into a pDESTTM15 expression vector for GST affinity purification. Protein production and purification was carried out using similar protocols and buffers as used for the His-BRD4(BD1) system. Purification was carried on GST affinity resin (Thermo Scientific) and reduced glutathione was used for protein release. GST-BRD4(BD1) was further purified by size exclusion chromatography on a Superdex 16/60 Hiload column (GE Healthcare) using 20 mM TRIS pH=8.0, 150 mM NaCl Buffer.

SMILES	IC50
Nc1nc2nc[nH]c2c(=O)[nH]1 [Compound 1a]	> 100 µM
Cn1cnc2nc(N)[nH]c(=O)c21 [Compound 1b]	> 100 µM
CCn1cnc2[nH]c(N)nc(=O)c21 [Compound 1c, 7-ethylguanine]	> 100 µM
Nc1nc2nc[nH]c2c(=S)[nH]1 [Compound 2a]	> 100 µM
O=c1[nH]c(=O)c2[nH]cnc2[nH]1 [Compound 2b, xanthine]	> 100 µM
Cn1cnc2[nH]c(=O)[nH]c(=O)c21 [Compound 2c]	> 100 µM
CCn1cnc2[nH]c(=O)[nH]c(=O)c21 [Compound 3a, 7-Ethylxanthine]	> 100 µM
CC(C)Cn1cnc2[nH]c(=O)[nH]c(=O)c21 [Compound 3b]	> 100 µM
CCn1cnc2[nH]c(NC(=O)OC(C)(C)C)nc(=O)c21 [Compound 3c]	> 100 µM
O=c1[nH]c(=O)n(Cc2ccc(Cl)cc2)c2nc[nH]c12 [Compound 4a]	> 100 µM
CCn1cnc2c1c(=O)[nH]c(=O)n2C [Compound 4c]	> 100 µM
CCn1cnc2c1c(=O)[nH]c(=O)n2CC [Compound 5a]	70.3 µM
CCn1cnc2c1c(=O)[nH]c(=O)n2C(C)C [Compound 5b]	52.5 µM
CCn1cnc2c1c(=O)[nH]c(=O)n2CC(C)C [Compound 5c]	> 100 µM
CCn1cnc2c1c(=O)[nH]c(=O)n2Cc1ccc(Br)cc1 [Compound 6c]	2.6 µM
CCn1cnc2c1c(=O)[nH]c(=O)n2Cc1ccc(C(C)(C)C)cc1 [Compound 7b]	2.6 µM
CCCCn1c(NC(=O)OC(C)(C)C)nc(=O)c2c1ncn2CC [Compound 7c]	17.9 µM
CCn1cnc2c1c(=O)nc(NC(=O)OC(C)(C)C)n2Cc1ccc(Cl)cc1 [Compound 8a]	> 100 µM
CCn1cnc2c1c(=O)nc(NC(=O)OC(C)(C)C)n2C(=O)OC(C)(C)C [Compound 8b]	> 100 µM
CCCCn1c(N)nc(=O)c2c1ncn2CC [Compound 8c]	10.7 µM
CCn1cnc2c1c(=O)nc(N)n2Cc1ccc(Cl)cc1 [Compound 9a]	> 100 µM
Cn1c(-c2ccc(Cl)cc2)nc2c1c(=O)[nH]c(=O)n2Cc1ccccc1 [Compound 10c]	> 100 µM
O=c1[nH]c(=O)c2[nH]c(Br)nc2[nH]1 [Compound 11b]	> 100 µM
O=c1[nH]c(=O)n(Cc2ccc(Cl)cc2)c2nc(Br)[nH]c12 [Compound 11c]	> 100 µM
CCn1c(Br)nc2[nH]c(=O)[nH]c(=O)c21 [Compound 12a]	> 100 µM
CCn1c(Br)nc2c1c(=O)[nH]c(=O)n2Cc1ccc(Cl)cc1 [Compound 12b]	< 100 µM
CCCCn1c(=O)[nH]c(=O)c2c1nc(Cl)n2CC [Compound 12c, 3-Butyl-8-chloro-7-ethylxanthine]	> 100 µM
CCn1c(S)nc2c1c(=O)[nH]c(=O)n2C [Compound 14c]	< 100 µM

SMILES	IC50
CCCCn1c(=O)[nH]c(=O)c2c1nc(S)n2CC [Compound 15a, 3-butyl-7-ethyl-8-mercaptoxanthine]	35.1 µM
CCn1c(SC)nc2c1c(=O)[nH]c(=O)n2C [Compound 15c]	100 µM
O=C(O)CCSc1nc2c([nH]1)c(=O)[nH]c(=O)n2Cc1ccc(F)cc1 [Compound 16a]	> 100 µM
CCCCn1c(=O)[nH]c(=O)c2[nH]c(CO)nc21 [Compound 17a, 3-Butyl-8-hydroxymethylxanthine]	> 100 µM
O=c1[nH]c(=O)n(Cc2ccc(Cl)cc2)c2nc(CO)[nH]c12 [Compound 17b]	> 100 µM
CCCCn1c(=O)[nH]c(=O)c2c1nc(CO)n2C [Compound 17c]	> 100 µM
CCCCn1c(=O)[nH]c(=O)c2c1nc(CO)n2CC [Compound 18a, 3-Butyl-7-ethyl-8-hydroxymethylxanthine]	> 100 µM
CCCCn1c(=O)[nH]c(=O)c2c1nc(CO)n2CCC [Compound 18b]	> 100 µM
CCn1c(CO)nc2c1c(=O)[nH]c(=O)n2Cc1ccccc1 [Compound 18c]	> 100 µM
CCn1c(CO)nc2c1c(=O)[nH]c(=O)n2Cc1ccc(Cl)cc1 [Compound 19a]	93.3 µM
CCCCn1c(=O)[nH]c(=O)c2c1nc(CCl)n2CC [Compound 19c, 3-butyl-8-chloromethyl-7-ethylxanthine]	> 100 µM
CCn1c(CSc2nc[nH]n2)nc2c1c(=O)[nH]c(=O)n2Cc1ccc(Cl)cc1 [Compound 21a]	45.6 µM
CCCCn1c(=O)[nH]c(=O)c2c1nc(CSc1n[nH]c(N)n1)n2CC [Compound 21b, 8-(5-Amino-1H-[1,2,4]triazol-3-ylsulfanylmethyl)-3-butyl-7-ethyl-3,7-dihydro-purine-2,6-dione]	89.1 µM
CCCCn1c(=O)[nH]c(=O)c2c1nc(CSc1nc3ccccc3[nH]1)n2CC [Compound 22b]	> 100 µM
CCn1c(CSc2nc3ccccc3[nH]2)nc2c1c(=O)[nH]c(=O)n2Cc1ccc(Cl)cc1 [Compound 23a]	> 100 µM
CCCCn1c(=O)[nH]c(=O)c2c1nc(CSc1cc3ccccc3[nH]1)n2CC [Compound 23b]	> 100 µM
CCn1c(CSc2cc3ccccc3[nH]2)nc2c1c(=O)[nH]c(=O)n2Cc1ccc(Cl)cc1 [Compound 24a]	> 100 µM
CCCCn1c(=O)[nH]c(=O)c2c1nc(CSc1nc3nc(C)cc(C)n3n1)n2CC [Compound 24b]	69.6 µM
CCCCn1c(=O)[nH]c(=O)c2c1nc(CSc1nc3nc(CC)cc(CC)n3n1)n2CC [Compound 25b]	46.6 µM
CCCCc1c(C)nc2nc(SCc3nc4c(c(=O)[nH]c(=O)n4Cc4ccc(Cl)cc4)n3C)nn2c1C [Compound 27a]	100 µM
CCCCc1c(C)nc2nc(SCc3nc4c(c(=O)[nH]c(=O)n4Cc4ccc(Cl)cc4)n3CC(C)C)nn2c1C [Compound 28a]	> 100 µM
CCCCn1c(=O)[nH]c(=O)c2c1nc(Sc1nc3nc(C)cc(C)n3n1)n2CC [Compound 28b, 3-Butyl-8-(5,7-dimethyl-[1,2,4]triazolo[1,5-a]pyrimidin-2-ylsulfanyl)-7-ethyl-3,7-dihydro-purine-2,6-dione]	> 100 µM
CCn1c(Sc2nc3nc(C)cc(C)n3n2)nc2c1c(=O)[nH]c(=O)n2Cc1ccc(Cl)cc1 [Compound 29a]	> 100 µM
CCc1cc(CC)n2nc(Sc3nc4c(c(=O)[nH]c(=O)n4Cc4ccc(Cl)cc4)n3CC)nc2n1 [Compound 30a]	18.3 µM
CCCCc1c(C)nc2nc(Sc3nc4c(c(=O)[nH]c(=O)n4Cc4ccc(Cl)cc4)n3CC)nn2c1C [Compound 31a]	46.8 µM
CCCCc1c(C)nc2nc(CSc3nc4c(c(=O)[nH]c(=O)n4Cc4ccc(Cl)cc4)n3CC)nn2c1C [Compound 31b]	59.6 µM
CCCCc1c(C)nc2nc(CSc3nc4c(c(=O)[nH]c(=O)n4CCCC)n3CC)nn2c1C [Compound 32a, 3-Butyl-8-(6-butyl-5,7-dimethyl-[1,2,4]triazolo[1,5-a]pyrimidin-2-ylmethylsulfanyl)-7-ethyl-3,7-dihydro-purine-2,6-dione]	54 µM
